# According to patent US10925874B2, “Substituted pyrazolopyrimidines as glucocerebrosidase activators” (The United States of America, as Represented by the …, priority 2010, dated 2021):
# Biological target: T1, N370S glucocerebrosidase from human spleen homogenate (Homo sapiens, UniProt P04062, N409S)
# T1 construct: N370S glucocerebrosidase from human spleen homogenate as the enzyme preparation; from tissue; host or cells: human spleen homogenate
# T1 sequence (P04062 40-536 N409S): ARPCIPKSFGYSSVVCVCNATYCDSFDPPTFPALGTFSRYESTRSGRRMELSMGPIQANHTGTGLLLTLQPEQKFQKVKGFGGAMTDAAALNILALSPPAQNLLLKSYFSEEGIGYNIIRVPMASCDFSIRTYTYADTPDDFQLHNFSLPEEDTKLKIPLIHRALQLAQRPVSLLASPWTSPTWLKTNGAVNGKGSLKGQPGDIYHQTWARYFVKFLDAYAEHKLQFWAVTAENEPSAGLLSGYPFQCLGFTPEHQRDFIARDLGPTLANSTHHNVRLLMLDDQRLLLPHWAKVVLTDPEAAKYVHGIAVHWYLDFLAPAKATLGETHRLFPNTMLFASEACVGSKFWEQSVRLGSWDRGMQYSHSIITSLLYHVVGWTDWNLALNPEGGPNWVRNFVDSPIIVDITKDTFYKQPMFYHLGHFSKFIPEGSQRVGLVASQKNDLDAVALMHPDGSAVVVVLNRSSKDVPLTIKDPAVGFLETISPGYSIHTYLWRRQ
# Assay: qHTS fluorogenic enzyme assay for activators of N370S glucocerebrosidase (4-methylumbelliferyl-beta-D-glucopyranoside substrate)
# Format: biochemical
# Conditions: pH 5.0, 37° C. 40 min
# Source text: qHTS Assay for Inhibitors and Activators of N370S glucocerebrosidase as a Potential Chaperone Treatment of Gaucher Disease: Primary Screen Confirmation
# This is a fluorogenic enzyme assay with 4-methylumbelliferyl-beta-D-glucopyranoside as the substrate and N370S glucocerebrosidase from human spleen homogenate as the enzyme preparation. Upon the hydrolysis of this fluorogenic substrate, the resulting product, […] which can be detected by a standard fluorescence plate reader. Data were normalized to the controls for basal activity (without enzyme) and 100% activity (with enzyme). The AC50 values were determined from concentration-response data modeled with the standard Hill equation.
# Human spleen homogenate is prepared as follows by homogenizing spleen with assay buffer containing 50 mM citric acid (titrated with potassium phosphate to pH 5.0), 100 mM potassium chloride, 10 mM sodium chloride, 1 mM magnesium chloride, 0.01% Tween-20. The protein concentration of the human spleen homogenate is approximated 1.35 ug/ul.
# The assay is performed in 1536 well plates according to the following protocol. (1) 2 ul spleen homogenate ([…] final) is added to each well. (2) 23 nL test compound in DMSO solution is added to each well. The final concentration of compound in the test well is 0.5 nM to 58 uM. (3) 2 ul of substrate (1 mM final) are added to each well. (4) Incubate assay plates at 37° C. for 40 min. (5) Add 2 ul stop solution (1M NaOH and 1M Glycine mixture, pH 10) to each well. (6) Detect the assay plate in a ViewLux plate reader (PerkinElmer) using 365 nm excitation with emission at 440 nm.
row,Compound,AC50
1,"C#Cc1ccc(NC(=O)c2cnn3c(C)cc(C)nc23)cc1 [NCGC00188758-01, N-(4-ethynylphenyl)-5,7-dimethylpyrazolo[1,5-a]pyrimidine-3-carboxamide]",0.366 µM
2,"COc1ccc(NC(=O)c2cnn3c(C)cc(C)nc23)c(OC)c1 [NCGC00188781-01, N-(2,4-dimethoxyphenyl)-5,7-dimethylpyrazolo[1,5-a]pyrimidine-3-carboxamide]",25.9 µM
3,"Cc1cc(C)n2ncc(C(=O)Nc3ccc(C)c(Cl)c3)c2n1 [NCGC00188782-01, N-(3-chloro-4-methylphenyl)-5,7-dimethylpyrazolo[1,5-a]pyrimidine-3-carboxamide]",1.83 µM
4,"Cc1cc(C)n2ncc(C(=O)Nc3ccc(C)c(C)c3)c2n1 [NCGC00188783-01, N-(3,4-dimethylphenyl)-5,7-dimethylpyrazolo[1,5-a]pyrimidine-3-carboxamide]",1.46 µM
5,"CC(=O)c1ccc(NC(=O)c2cnn3c(C)cc(C)nc23)cc1 [NCGC00188784-01, N-(4-acetylphenyl)-5,7-dimethylpyraozlo[1,5-a]pyrimidine-3-carboxamide]",163 µM
6,"CC(=O)c1cccc(NC(=O)c2cnn3c(C)cc(C)nc23)c1 [NCGC00188785-01, N-(3-acetylphenyl)-5,7-dimethylpyrazolo[1,5-a]pyrimidine-3-carboxamide]",32.6 µM
7,"Cc1cc(C)n2ncc(C(=O)Nc3cccc(C(F)(F)F)c3)c2n1 [NCGC00188786-01, 5,7-dimethyl-N-(3-(trifluoromethyl)phenyl)pyrazolo[1,5-a]pyrimidine-3-carboxamide]",41.1 µM
8,"Cc1cc(C)n2ncc(C(=O)Nc3ccc(C(F)(F)F)cc3)c2n1 [NCGC00188787-01, 5,7-dimethyl-N-(4-(trifluoromethyl)phenyl)pyrazolo[1,5-a]pyrimidine-3-carboxamide]",1.46 µM
9,"Cc1cc(-c2ccccc2)nc2c(C(=O)NC3CCC(C(C)(C)C)CC3)cnn12 (stereo not drawn) [NCGC00229707-01, N-(4-tert-butylcyclohexyl)-7-methyl-5-phenylpyrazolo[1,5-a]pyrimidine-3-carboxamide]",5.8 µM

# Now from value to compound:
row,AC50,Compound
1,2.06 µM,"Cc1cc(-c2ccccc2)nc2c(C(=O)NC3CCC(C(C)(C)C)CC3)cnn12 (stereo not drawn) [NCGC00229708-01, N-(4-tert-butylcyclohexyl)-7-methyl-5-phenylpyrazolo[1,5-a]pyrimidine-3-carboxamide]"
2,32.6 µM,"Cc1cc(-c2ccccc2)n2ncc(C(=O)NC3CCC(C(C)(C)C)CC3)c2n1 (stereo not drawn) [NCGC0229711-01, N-(4-tert-butylcyclohexyl)-5-methyl-7-phenylpyrazolo[1,5-a]pyrimidine-3-carboxamide]"
3,18.3 µM,"Cc1cc(C)n2ncc(C(=O)Nc3ccccc3Sc3ccccc3)c2n1 [NCGC00229712-01, 5,7-dimethyl-N-(2-(phenylthio)phenyl)pyrazolo[1,5-a]pyrimidine-3-carboxamide]"
4,3.66 µM,"Cc1cc(C)n2ncc(C(=O)Nc3ccc(Cl)c(Cl)c3)c2n1 [NCGC00229713-01, N-(3,4-dichlorophenyl)-5,7-dimethylpyrazolo[1,5-a]pyrimidine-3-carboxamide]"
5,13 µM,"CCc1ccc(NC(=O)c2cnn3c(C)cc(-c4ccccc4)nc23)cc1 [NCGC00229714-01, N-(4-ethylphenyl)-7-methyl-5-phenylpyrazolo[1,5-a]pyrimidine-3-carboxamide]"
6,6.51 µM,"Cc1cc(-c2ccccc2)nc2c(C(=O)Nc3ccc(Cl)c(Cl)c3)cnn12 [NCGC00229715-01, N-(3,4-dichlorophenyl)-7-methyl-5-phenylpyrazolo[1,5-a]pyrimidine-3-carboxamide]"
7,25.9 µM,"Cc1cc(C)n2ncc(C(=O)Nc3cc(Cl)cc(Cl)c3)c2n1 [NCGC00229716-01, N-(3,5-dichlorophenyl)-5,7-dimethylpyrazolo[1,5-a]pyrimidine-3-carboxamide]"
8,9.19 µM,"CCc1ccc(NC(=O)c2cnn3c(-c4ccccc4)cc(C)nc23)cc1 [NCGC00229717-01, N-(4-ethylphenyl)-5-methyl-7-phenylpyrazolo[1,5-a]pyrimidine-3-carboxamide]"
9,206 µM,"Cc1ccc(NC(=O)c2cnn3c(-c4ccccc4)cc(C)nc23)cc1 [NCGC0229718-01, 5-methyl-7-phenyl-N-p-tolylpyrazolo[1,5-a]pyrimidine-3-carboxamide]"
10,8.19 µM,"Cc1cc(-c2ccccc2)nc2c(C(=O)Nc3ccc4c(c3)CCC4)cnn12 [NCGC00229719-01, N-(2,3-dihydro-1H-inden-5-yl)-7-methyl-5-phenylpyrazolo[1,5-a]pyrimidine-3-carboxamide]"

# Biological target: T2, GCase (Homo sapiens, UniProt P04062, N409S)
# T2 construct: evaluated in a N370S patient derived fibroblast for chaperone activity; endogenous in cells; host or cells: N370S Gaucher patient-derived fibroblasts
# T2 sequence (P04062 40-536 N409S): T1 sequence (P04062 40-536 N409S)
# Assay: Chaperone activity in N370S patient derived fibroblast (GCase/LAMP/DAPI staining)
# Format: cell-based
# Conditions: NGC00188758-1 1 μM and 5 μM, isofagomine 1 μM, overlay of anti GCase R386 and LAMP stains
# Source text: GCase was visualized with red stain (anti GCase R386 antibody), lysosome with green (LAMP), and nucleus with blue (DAPI). […] All laser settings were held constant across all of the fields imaged.
row,Compound,GCase activity in the lysosome relative to vehicle control
1,"C#Cc1ccc(NC(=O)c2cnn3c(C)cc(C)nc23)cc1 [NCGC00188758-01, N-(4-ethynylphenyl)-5,7-dimethylpyrazolo[1,5-a]pyrimidine-3-carboxamide]",significantly increased GCase activity in the lysosome
2,"OC[C@H]1CNC[C@@H](O)[C@@H]1O [isofagomine, reference compound]",significantly increased GCase activity in the lysosome
